Assay results taken from ChEMBL document CHEMBL5154761, “Design, synthesis, and evaluation of 9-(pyrimidin-2-yl)-9H-carbazole derivatives disrupting mitochondrial homeostasis in human lung adenocarcinoma” (Eur J Med Chem, 2022).
Active and inactive are the calls of the source. The calls are words filed in the database; no cut-off is given here.

Assays:
[1] = system: A549; experiment: Cytotoxicity against human A549 cells assessed as cell growth inhibition incubated for 48 hrs by MTT assay; type: functional, cell-based; settings: A549, 48 h
[2] = system: A549; experiment: Induction of cell cycle arrest in human A549 cells assessed as accumulation at G2/M phase at 10 uM incubated for 48 hrs by PI staining based flow cytometry analysis; type: functional
[3] = system: A549; experiment: Induction of cell cycle arrest in human A549 cells assessed as accumulation at G2/M phase incubated for 48 hrs by PI staining based flow cytometry analysis; type: functional; settings: dose <= 1.0 µM, DDE = dose-dependent effect
[4] = system: A549; experiment: Induction of cell cycle arrest in human A549 cells assessed as accumulation at Go/G1 phase at 0.5 uM incubated for 48 hrs by PI staining based flow cytometry analysis (reference value: 62.45); type: functional
[5] = system: A549; experiment: Induction of cell cycle arrest in human A549 cells assessed as accumulation at Go/G1 phase at 1 uM incubated for 48 hrs by PI staining based flow cytometry analysis (reference value: 62.45); type: functional
[6] = system: A549; experiment: Induction of cell cycle arrest in human A549 cells assessed as accumulation at G2/M phase at 0.5 uM incubated for 48 hrs by PI staining based flow cytometry analysis (reference value: 18.14); type: functional
[7] = system: A549; experiment: Induction of cell cycle arrest in human A549 cells assessed as accumulation at G2/M phase at 1 uM incubated for 48 hrs by PI staining based flow cytometry analysis (reference value: 18.14); type: functional
[8] = system: A549; experiment: Induction of cell cycle arrest in human A549 cells assessed as increase in cyclin B1 expression upto 1 uM incubated for 48 hrs by Western blot analysis; type: functional, cell-based
[9] = system: A549; experiment: Induction of cell cycle arrest in human A549 cells assessed as decrease in cyclin D1 expression upto 1 uM incubated for 48 hrs by Western blot analysis; type: functional, cell-based
[10] = system: A549; experiment: Induction of DNA damage in human A549 cells assessed as upregulation of gamma H2AX incubated for 48 hrs by Western blot analysis; type: functional, cell-based; settings: dose <= 1.0 µM, DDE = dose-dependent effect
[11] = system: A549; experiment: Induction of apoptosis in human A549 cells assessed as viable cells at 0.5 uM incubated for 48 hrs by Annexin V-FITC/propidium iodide staining based flow cytometry analysis (reference value: 97.3%); type: functional; settings: read-out: Activity
[12] = system: A549; experiment: Induction of apoptosis in human A549 cells assessed as viable cells at 1 uM incubated for 48 hrs by Annexin V-FITC/propidium iodide staining based flow cytometry analysis (reference value: 97.3%); type: functional; settings: read-out: Activity
[13] = system: A549; experiment: Induction of apoptosis in human A549 cells assessed as early apoptotic cells at 0.5 uM incubated for 48 hrs by Annexin V-FITC/propidium iodide staining based flow cytometry analysis (reference value: 1.46%); type: functional
[14] = system: A549; experiment: Induction of apoptosis in human A549 cells assessed as early apoptotic cells at 1 uM incubated for 48 hrs by Annexin V-FITC/propidium iodide staining based flow cytometry analysis (reference value: 1.46%); type: functional
[15] = system: A549; experiment: Induction of apoptosis in human A549 cells assessed as late apoptotic cells at 1 uM incubated for 48 hrs by Annexin V-FITC/propidium iodide staining based flow cytometry analysis (reference value: 1.00%); type: functional
[16] = system: A549; experiment: Induction of apoptosis in human A549 cells assessed as increase in caspase 3 protein expression at 0.5 to 1 uM measured after 48 hrs by Western blot assay; type: functional, cell-based; settings: dose 0.5-1 µM
[17] = system: A549; experiment: Induction of apoptosis in human A549 cells assessed as increase in cleaved caspase 3 protein expression at 0.5 to 1 uM measured after 48 hrs by Western blot assay; type: functional, cell-based; settings: dose 0.5-1 µM
[18] = system: A549; experiment: Induction of apoptosis in human A549 cells assessed as increase in PARP protein expression at 0.5 to 1 uM measured after 48 hrs by Western blot assay; type: functional, cell-based; settings: dose 0.5-1 µM
[19] = system: A549; experiment: Induction of apoptosis in human A549 cells assessed as upregulation of caspase 9 protein expression at 0.5 to 1 uM measured after 48 hrs by Western blot assay; type: functional, cell-based; settings: dose 0.5-1 µM
[20] = system: A549; experiment: Induction of apoptosis in human A549 cells assessed as increase in cleaved caspase 7 protein expression at 0.5 to 1 uM measured after 48 hrs by Western blot assay; type: functional, cell-based; settings: dose 0.5-1 µM
[21] = system: A549; experiment: Induction of apoptosis in human A549 cells assessed as increase in P53 protein expression at 0.5 to 1 uM measured after 48 hrs by Western blot assay; type: functional, cell-based; settings: dose 0.5-1 µM
[22] = system: A549; experiment: Induction of apoptosis in human A549 cells assessed as decrease in caspase 7 protein expression at 0.5 to 1 uM measured after 48 hrs by Western blot assay; type: functional, cell-based; settings: dose 0.5-1 µM
[23] = system: A549; experiment: Induction of apoptosis in human A549 cells assessed as decrease in Bcl-2 protein expression at 0.5 to 1 uM measured after 48 hrs by Western blot assay; type: functional, cell-based; settings: dose 0.5-1 µM
[24] = system: A549; experiment: Antiproliferative activity against human A549 cells at >1.35 uM incubated for 48 hrs by RTCA analysis; type: functional, cell-based
[25] = system: NRK-52E; experiment: Antiproliferative activity against rat NRK-52E cells at upto 10.75 uM incubated for 48 hrs by RTCA analysis; type: toxicity, cell-based
[26] = system: A549; experiment: Antitumor activity against human A549 cells xenografted in BALB/c nude mouse assessed as reduction in tumor size at 2 mg/kg, ip administered once daily for 14 days and measured every day (reference value: 2100 mm3); type: functional; settings: time 14 day
[27] = system: A549; experiment: Antitumor activity against human A549 cells xenografted in BALB/c nude mouse assessed as necrotic cells at 2 mg/kg, ip administered once daily for 14 days by H and E staining; type: functional, organism-based; settings: time 14.0 day
[28] = system: A549; experiment: Inhibition of mitochondrial respiration in human A549 cells assessed as decrease in proton leak at 2 uM in presence of oligomycin/FCCP/antimycin A/rotenone measured upto 75 mins by seahorse XFe24 flux analyzer; type: functional, cell-based
[29] = system: A549; experiment: Inhibition of mitochondrial respiration in human A549 cells assessed as decrease in maximal respiration at 2 uM in presence of oligomycin/FCCP/antimycin A /rotenone measured upto 75 mins by seahorse XFe24 flux analyzer; type: functional, cell-based
[30] = system: A549; experiment: Inhibition of mitochondrial respiration in human A549 cells assessed as decrease in spare capacity at 2 uM in presence of oligomycin/FCCP/antimycin A /rotenone measured upto 75 mins by seahorse XFe24 flux analyzer; type: functional, cell-based
[31] = system: A549; experiment: Inhibition of mitochondrial respiration in human A549 cells assessed as reduction in respiratory control ratio by seahorse XFe24 flux analyzer; type: functional, cell-based; settings: dose 0.5-2 µM, DDE = dose-dependent effect
[32] = system: A549; experiment: Inhibition of mitochondrial membrane potential in human A549 cells by JC-1 staining based high-content screening method; type: functional, cell-based; settings: dose 0.5-2 µM, DDE = dose-dependent effect
[33] = system: A549; experiment: Induction of morphological changes in human A549 cells assessed as swollen microstructure of mitochondria by transmission electron microscopy; type: functional, cell-based
[34] = system: A549; experiment: Induction of morphological changes in human A549 cells assessed as vacuolated microstructure of mitochondria by transmission electron microscopy; type: functional, cell-based
[35] = system: A549; experiment: Induction of apoptosis in human A549 cells assessed as rate of apoptotic cells at 0.5 to 1 uM incubated for 48 hrs by Annexin V-FITC/propidium iodide staining based flow cytometry analysis (reference value: 2.7 %); type: functional; settings: dose 0.5-1 µM
[36] = system: A549; experiment: Inhibition of colony formation in human A549 cells incubated for 48 hrs followed by culture medium replacement for every 72 hrs and measured after 7 days by crystal violet staining based analysis; type: functional, cell-based; settings: dose 1-2 µM, time 7.0 day, DDE = dose-dependent effect

**Q.** Which IC50 [1] does the source give for `O=C(c1ccc2c(c1)OCO2)c1cccc2c3ccccc3n(-c3ncccn3)c12` here?
**A.** 0.82 µM

**Q.** And the Activity [2]?
**A.** Active

**Q.** And the Activity [3]?
**A.** Dde

**Q.** What about the Activity [4] of the same molecule?
**A.** 59.84%

**Q.** And the Activity [5]?
**A.** 29.76%

**Q.** What about the Activity [6] of the same molecule?
**A.** 23.16%

**Q.** What about the Activity [7] of the same molecule?
**A.** 65.62%

**Q.** And the Activity [8]?
**A.** Active

**Q.** And the Activity [9]?
**A.** Active

**Q.** And the Activity [10]?
**A.** Dde

**Q.** What about the viability at 0.5 µM [11] of the same molecule?
**A.** 93.4%

**Q.** What about the viability at 1 µM [12] of the same molecule?
**A.** 78.9%

**Q.** And the Activity [13]?
**A.** 2.71%

**Q.** What about the Activity [14] of the same molecule?
**A.** 12.3%

**Q.** What about the Activity [15] of the same molecule?
**A.** 6.98%

**Q.** What about the Activity [16] of the same molecule?
**A.** Active

**Q.** And the Activity [17]?
**A.** Active

**Q.** And the Activity [18]?
**A.** Active

**Q.** What about the Activity [19] of the same molecule?
**A.** Active

**Q.** What about the Activity [20] of the same molecule?
**A.** Active

**Q.** What about the Activity [21] of the same molecule?
**A.** Active

**Q.** What about the Activity [22] of the same molecule?
**A.** Active

**Q.** What about the Activity [23] of the same molecule?
**A.** Active

**Q.** And the Activity [24]?
**A.** Active

**Q.** What about the Activity [25] of the same molecule?
**A.** Non-Toxic

**Q.** What about the Activity [26] of the same molecule?
**A.** 1255 mm3

**Q.** What about the Activity [27] of the same molecule?
**A.** Active

**Q.** What about the inhibition [28] of the same molecule?
**A.** Active

**Q.** What about the inhibition [29] of the same molecule?
**A.** Active

**Q.** What about the inhibition [30] of the same molecule?
**A.** Active

**Q.** And the inhibition [31]?
**A.** Dde

**Q.** What about the inhibition [32] of the same molecule?
**A.** Dde

**Q.** What about the Activity [33] of the same molecule?
**A.** Active

**Q.** And the Activity [34]?
**A.** Active

**Q.** What about the Activity [35] of the same molecule?
**A.** 21.1%

**Q.** And the inhibition [36]?
**A.** Dde
